The results in this text go back to PubChem BioAssay (NCI).

Assay in all cases: DTP human tumour cell line panel, 48 h
The subject of assay [1] is EKVX NSCLC.
In assay [2] the test system is NCI-H522 lung.
Assay [3] relates to ACHN renal.
Assay [4] concerns BT-549 breast.
Assay [5] has as its system MALME-3M melanoma.
Assay [6] has as its system SK-MEL-5 melanoma.
For assay [7], the system named is SK-MEL-28 melanoma.
In assay [8] the test system is HS 578T breast.

Values joined by “and” are separate entries in the source; they are usually repeats but may differ in a detail not shown here. Equal values may be shown once.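 Five concentrations, 48 hours, 96-well plates. The concentration for 50% growth inhibition is given as GI50. At the TGI there is no net growth.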

Regarding `Cn1c2c(c3c(Cl)nncc31)Cc1ccccc1-2`, the GI50 was 5.79 µM in assay [1]; 25.1 µM in assay [2]; 11.6 µM in assay [3]; 20.7 µM in assay [4]; 24.9 µM in assay [5]; 10.3 µM in assay [6]. Also, the GI50 is 30.2 µM in assay [7] and 28 µM in assay [8]. Also, the total growth inhibition concentration (TGI) was found to be 44.3 µM in assay [1]; 59.9 µM in assay [2]; 54.3 µM in assay [3]; 64.9 µM in assay [4]; 85.6 µM in assay [5]; 24.9 µM in assay [6]. Besides, the TGI in assay [7] and in assay [8] was more than 100 µM each time.

`C/C(=C(\c1ccc(OCCN2CCCCCC2)cc1)c1ccc(OC(=O)c2ccccc2)cc1)c1ccc(Cl)cc1`: the GI50 was 4.97 µM in assay [1]; 5.27 µM in assay [2]; 4.87 µM in assay [3]; 4.56 µM in assay [4]; 3.6 µM in assay [5]; 4.55 µM in assay [6]. The GI50 in assay [7] is 4.33 µM; in assay [8] it was 3.04 µM. For the same compound, the TGI stood at 13.9 µM in assay [1]; 10.6 µM in assay [2]; 9.46 µM in assay [3]; 8.99 µM in assay [4]; 8.72 µM in assay [5]; 8.84 µM in assay [6]. The TGI in assay [7] was determined as 9.02 µM; in assay [8], 9.76 µM.

As to `CC[C@@H](C)/C=C(C)/C=C/C(=O)c1c(O)c(-c2ccc(O)cc2)cn(O)c1=O`, the GI50 in assay [1] is 1.6 µM; in assay [2], 0.399 µM; in assay [3], 0.33 µM; in assay [4], 0.487 µM; in assay [5], 0.255 µM; in assay [6] it was 0.201 µM. The GI50 was 0.674 µM in assay [7] and 2.83 µM in assay [8]. The TGI in assay [1] was determined as 13.1 µM; in assay [2] it was 3.74 µM; in assay [3], 9.55 µM; in assay [4] it was 16.1 µM; in assay [5], 4.7 µM; in assay [6], 0.562 µM. Further, the TGI worked out at 19.2 µM in assay [7] and 34.5 µM in assay [8].

Take `O=C(NCC1CCCO1)c1ccc(NC2=C(Cl)C(=O)N(Cc3ccccc3)C2=O)cc1` (centres undefined): the GI50 in assay [1] is 20.4 µM; in assay [2], 1.92 µM; in assay [3], 18.7 µM; in assay [4], 16.7 µM; in assay [6] it was 14.6 µM; in assay [7], 18.6 µM. Besides, in assay [8], the GI50 was 22.1 µM. For the same compound, the concentration for total growth inhibition (TGI) in assay [1] worked out at 37 µM; in assay [2] it was 10.8 µM; in assay [3], 38.8 µM; in assay [4] it was 33.9 µM; in assay [6], 33.3 µM; in assay [7], 41.1 µM. In addition, the concentration for total growth inhibition (TGI) in assay [8] is 65.3 µM.

With `CC1(C)CCCC(C)(C2CCC3(C)C2C(O)CC2C4(C)CCC(O)C(C)(C)C4CCC23C)O1` (centres undefined), the TGI in assay [1], in assay [2], in assay [3], in assay [4], in assay [5] and in assay [6] was more than 100 µM in each case. The figures for the TGI in assay [7] and in assay [8] were more than 100 µM and 89.1 µM, respectively.

On to `COc1cc(C(=O)c2cnc(-c3cccc4[nH]ccc34)[nH]2)cc(OC)c1OC`, for which the concentration for total growth inhibition (TGI) in assay [1] is more than 100 µM; in assay [3], 33.8 µM; in assay [4], 22 µM; in assay [5], 83 µM; in assay [6], 0.431 µM and 0.275 µM; in assay [7] it was more than 100 µM. For the same compound, in assay [8], the total growth inhibition concentration (TGI) is more than 100 µM. Further, the GI50 in assay [2] was 0.0369 µM; in assay [5], 19.6 µM; in assay [6] it was 0.0462 µM and < 0.01 µM; in assay [7] it was less than 0.01 µM.

Regarding `CCCCCCCCCCCCOC1C(CNC(=O)C2OC3OC(C)(C)OC3C2NC(=O)CN2CCN(c3ccc(OC)cc3)CC2)OC2OC(C)(C)OC21` (centres undefined), the GI50 in assay [1] was 5.46 µM; in assay [2] it was 4.92 µM; in assay [3], 3.59 µM; in assay [4], 6.19 µM; in assay [5], 11.9 µM; in assay [6], 4.39 µM. In addition, the GI50 in assay [7] was 5.86 µM; in assay [8], 3.78 µM. Also, the concentration for total growth inhibition (TGI) in assay [1] is 17 µM; in assay [2], 17.4 µM; in assay [3] it was 11.2 µM; in assay [4] it was 17.4 µM; in assay [5], 24.1 µM; in assay [6], 16.1 µM. Also, the values for the total growth inhibition concentration (TGI) in assay [7] and in assay [8] were 23.3 µM and 17 µM, respectively.

For `COc1cc(C2c3cc4c(cc3C(OC(=O)C[n+]3ccccc3)C3COC(=O)C23)OCO4)cc(OC)c1OC` (centres undefined), the GI50 in assay [1] is 0.436 µM; in assay [2], less than 0.01 µM; in assay [3], less than 0.0204 µM; in assay [4], less than 0.01 µM; in assay [5], more than 100 µM; in assay [6], less than 0.01 µM. The GI50 in assay [7] was 53 µM; in assay [8] it was less than 0.0241 µM. The TGI in assay [1] is more than 100 µM; in assay [2], less than 0.01 µM; in assay [3], more than 100 µM; in assay [4] it was more than 100 µM; in assay [5], more than 100 µM; in assay [6] it was less than 0.01 µM. The total growth inhibition concentration (TGI) in assay [7] and in assay [8] was more than 100 µM in each case.

With `CC(C)COc1nc2c(c(=O)n(C)c(=O)n2C)n1C`, the GI50 in assay [1] is more than 100 µM; in assay [3], more than 100 µM; in assay [5] it was more than 100 µM; in assay [6], more than 100 µM; in assay [7], more than 100 µM; in assay [8], 64.1 µM. Besides, the concentration for total growth inhibition (TGI) in assay [1], in assay [3], in assay [5], in assay [6], in assay [7] and in assay [8] was more than 100 µM throughout.

With `Nc1nc(/C=C\c2ccccc2)nc(N2CCN(c3ccccc3)CC2)n1`, the GI50 in assay [1] was 59.1 µM; in assay [2] it was 28.2 µM; in assay [3], 29.2 µM; in assay [4], 45 µM; in assay [6], 21.1 µM; in assay [7], 30.9 µM. Moreover, the GI50 in assay [8] was 61.8 µM. For the same compound, the total growth inhibition concentration (TGI) is more than 100 µM in assay [1]; 84.9 µM in assay [2]; more than 100 µM in assay [3]; more than 100 µM in assay [4]; 45 µM in assay [6]; 79.6 µM in assay [7]. In assay [8], the concentration for total growth inhibition (TGI) is more than 100 µM.
